One data set concerns xenograft tumors. The note with it: in mice; compared with etoposide; cited from earlier work.
Data set [1] deals with human colon tumor (HCT-116). The note with it: compared with 9-aminocamptothecin; cited from earlier work.
The next data set concerns the target Pgp (Homo sapiens, UniProt P08183). Particulars: cited from earlier work.
The next data set has as its target TopoIIα (Homo sapiens, UniProt P11388). Briefly: In vitro ATP hydrolysis assay (malachite green). It is filed as biochemical. The protocol:
Efficacy of the ATP-competitive inhibition of TopoIIα inhibitors of the invention are tested in vitro using an ATP hydrolysis assay that quantifies inorganic phosphate through the formation of a high molar absorptivity complex with malachite green and molybdate, adapted for use in 384-well plates, with a total reaction volume of 15 μL. This assay was first utilized to determine the Km of TopoIIα for its natural substrate, ATP, using ATP concentrations ranging from 62.5-1600 μM. To measure the apparent Km, the same reactions were repeated in the presence of 2, 5, or 10 μM neo. Absorbance at 620 nm was measured using a microtiter plate reader. To determine the Ki the same method was used with the following modifications: inhibitors (0.1-10 μM) in reaction buffer (without DNA and DTT) are added to the complete reaction buffer and preincubated for 10 min at 37° C. Reactions were initiated by the addition of 600 μM ATP and incubated for 30 min at 37° C. The IC50 value was determined and the Ki was calculated using the Cheng-Prusoff equation. Experiments were repeated in triplicate and GraphPad Prism software was used to perform non-linear fits (method of least squares) to the Michaelis-Menten kinetics (Km and Vmax) or the dose-response inhibition model (IC50 values).

Data set [2] has as its system triple negative MDA-MB-231 breast carcinoma spheroids. Nature of the data set: 3D-spheroid invasion. It is filed as cell-based, human. The note with it: through reversion of EMT. From the text:
A 3D-spheroid culture formulation was developed that allows for the culture of single uniform spheroids with variety of cell types in 96-well plates that can be used with a variety of epithelial-mesenchymal transition (EMT) biomarker reporters (see, U.S. Patent Publication No. 2011/0143960 A1; Li Q, Chen C, Kapadia A, Zhou Q, Harper M K, et al. (2011), 3D Models of epithelial-mesenchymal transition in breast cancer metastasis: high-throughput screening assay development, validation, and pilot screen. J Biomol Screen 16: 141-154). The 3D-spheroid based assays with neo (control) and derivatives were used to test their ability to revert EMT or induce cytotoxicity against human carcinomas resistant to clinically used TopoIIα drugs, including: MDA-MB-231, MCF7/AdrVP breast cancer, and SW480, Colo201, and DLD-1 (APC mutant) colon cancer cells. This 3D-model utilizes a luciferase reporter of vimentin, a key mesenchymal biomarker expressed in these cells. Vimentin expression is measured using a live spheroid luciferin substrate (caged luciferin) followed by a multiplex assay measuring spheroid viability. […]
Active compounds are then tested for their ability to inhibit spheroid invasion, as follows: Spheroid invasion is measured using 15 spheroids per sample group. […] Invading cells will be measured using an OPERETTA™ high content imaging system.

Another data set concerns DNA. Particulars: below 100 μM concentrations; cited from earlier work.

TopoIIα, sequence (P11388 whole entry): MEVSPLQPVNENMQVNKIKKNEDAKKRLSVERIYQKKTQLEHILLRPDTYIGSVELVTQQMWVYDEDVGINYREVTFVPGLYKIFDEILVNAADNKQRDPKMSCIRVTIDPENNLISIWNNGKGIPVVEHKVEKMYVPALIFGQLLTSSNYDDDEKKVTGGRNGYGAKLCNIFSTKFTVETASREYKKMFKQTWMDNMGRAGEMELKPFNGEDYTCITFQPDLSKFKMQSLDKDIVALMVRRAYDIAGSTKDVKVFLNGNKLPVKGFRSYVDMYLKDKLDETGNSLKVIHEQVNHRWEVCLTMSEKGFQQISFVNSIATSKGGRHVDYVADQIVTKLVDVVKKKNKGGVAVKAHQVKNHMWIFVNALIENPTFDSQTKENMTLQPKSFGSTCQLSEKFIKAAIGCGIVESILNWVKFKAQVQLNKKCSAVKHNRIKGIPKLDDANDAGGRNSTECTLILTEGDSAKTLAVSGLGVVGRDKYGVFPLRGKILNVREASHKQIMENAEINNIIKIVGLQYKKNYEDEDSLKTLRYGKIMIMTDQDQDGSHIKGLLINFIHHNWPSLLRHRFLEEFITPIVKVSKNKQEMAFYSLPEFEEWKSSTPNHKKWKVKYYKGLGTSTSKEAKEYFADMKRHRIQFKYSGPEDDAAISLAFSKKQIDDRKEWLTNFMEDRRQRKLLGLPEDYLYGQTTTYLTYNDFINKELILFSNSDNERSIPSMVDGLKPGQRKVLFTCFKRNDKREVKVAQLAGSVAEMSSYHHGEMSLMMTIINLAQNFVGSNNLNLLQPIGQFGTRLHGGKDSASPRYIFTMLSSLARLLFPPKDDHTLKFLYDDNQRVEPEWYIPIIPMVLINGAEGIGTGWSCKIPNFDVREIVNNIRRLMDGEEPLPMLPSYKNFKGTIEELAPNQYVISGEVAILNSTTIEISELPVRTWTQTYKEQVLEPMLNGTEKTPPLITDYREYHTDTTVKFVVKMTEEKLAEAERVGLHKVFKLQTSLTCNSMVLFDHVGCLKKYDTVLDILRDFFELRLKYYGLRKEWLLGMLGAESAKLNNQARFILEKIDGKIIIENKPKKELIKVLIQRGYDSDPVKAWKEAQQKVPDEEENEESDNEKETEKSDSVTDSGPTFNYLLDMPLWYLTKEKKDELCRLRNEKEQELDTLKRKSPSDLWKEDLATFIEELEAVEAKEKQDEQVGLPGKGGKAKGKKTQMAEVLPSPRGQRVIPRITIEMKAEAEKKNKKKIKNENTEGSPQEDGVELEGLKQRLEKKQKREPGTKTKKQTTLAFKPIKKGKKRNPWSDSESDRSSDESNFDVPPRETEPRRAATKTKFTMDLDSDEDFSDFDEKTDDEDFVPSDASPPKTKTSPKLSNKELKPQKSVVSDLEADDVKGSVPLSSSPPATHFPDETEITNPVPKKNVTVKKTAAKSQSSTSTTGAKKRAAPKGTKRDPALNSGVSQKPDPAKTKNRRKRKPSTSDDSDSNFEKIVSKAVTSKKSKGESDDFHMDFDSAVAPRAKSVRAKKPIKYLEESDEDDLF
Pgp, sequence (P08183 whole entry): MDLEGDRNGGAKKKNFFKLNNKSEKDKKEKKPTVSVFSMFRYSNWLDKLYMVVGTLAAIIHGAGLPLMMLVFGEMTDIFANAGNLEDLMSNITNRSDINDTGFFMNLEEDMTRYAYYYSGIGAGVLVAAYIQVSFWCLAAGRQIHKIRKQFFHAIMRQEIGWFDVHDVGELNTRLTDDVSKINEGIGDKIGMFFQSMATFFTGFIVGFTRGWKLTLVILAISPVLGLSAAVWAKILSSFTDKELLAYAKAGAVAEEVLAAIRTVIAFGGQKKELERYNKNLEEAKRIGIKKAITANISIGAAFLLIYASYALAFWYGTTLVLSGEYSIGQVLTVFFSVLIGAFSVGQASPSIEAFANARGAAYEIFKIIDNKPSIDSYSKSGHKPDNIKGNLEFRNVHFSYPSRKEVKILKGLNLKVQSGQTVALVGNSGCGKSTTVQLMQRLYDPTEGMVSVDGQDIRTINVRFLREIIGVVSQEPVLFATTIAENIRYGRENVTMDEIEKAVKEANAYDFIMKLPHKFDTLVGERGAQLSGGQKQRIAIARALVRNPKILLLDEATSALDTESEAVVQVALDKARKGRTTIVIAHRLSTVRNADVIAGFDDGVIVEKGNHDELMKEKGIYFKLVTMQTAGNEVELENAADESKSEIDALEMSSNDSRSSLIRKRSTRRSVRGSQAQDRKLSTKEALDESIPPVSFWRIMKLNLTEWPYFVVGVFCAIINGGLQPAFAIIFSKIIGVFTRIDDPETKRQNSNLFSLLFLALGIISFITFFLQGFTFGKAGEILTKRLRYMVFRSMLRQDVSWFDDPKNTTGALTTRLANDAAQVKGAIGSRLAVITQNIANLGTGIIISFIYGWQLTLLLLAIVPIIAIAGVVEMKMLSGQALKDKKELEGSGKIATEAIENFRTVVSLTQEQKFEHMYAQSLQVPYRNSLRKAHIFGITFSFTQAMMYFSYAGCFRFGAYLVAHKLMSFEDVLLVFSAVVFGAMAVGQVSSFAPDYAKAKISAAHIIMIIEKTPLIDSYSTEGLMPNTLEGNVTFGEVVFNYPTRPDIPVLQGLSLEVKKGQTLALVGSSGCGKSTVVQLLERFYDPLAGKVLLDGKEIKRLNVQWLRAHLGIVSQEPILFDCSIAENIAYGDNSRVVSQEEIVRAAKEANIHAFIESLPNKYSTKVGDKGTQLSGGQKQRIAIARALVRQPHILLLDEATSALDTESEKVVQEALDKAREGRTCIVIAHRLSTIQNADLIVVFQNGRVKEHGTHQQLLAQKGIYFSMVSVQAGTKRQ

In the case of `Cn1ccc2c(c1=O)C(=O)c1nccc3c1c-2nc1ccccc13` [neo, Neoamphimedine], in the data set with xenograft tumors, the “inhibition of the growth of xenograft tumors” value was “as effective as etoposide”. Further, the “efficacy in HCT-116 xenografts” value in data set [1] is on record as “as efficacious as”. Further, the “substrate for Pgp-dependent MDR” value at Pgp is “not a substrate”. Further, the Ki at TopoIIα (corresponding to the IC50, calculated using the Cheng-Prusoff equation, read-out: Ki, inhibition of TopoIIα ATPase function) was 800 ± 300 nM. For the same compound, the “increase of the apparent Km of TopoIIα for ATP” value at TopoIIα (over a concentration range from 0-10 μM) is given as “approximately 2 fold”. In addition, on TopoIIα (read-out: IC50, inhibition of TopoIIα ATPase function), the IC50 was 2000 nM. The “inhibition of invasive potential of spheroids” value in data set [2] is “significantly inhibits the invasive potential”. Also, in the data set on DNA, the “stabilization of the cleaved complex, DNA strand breaks or intercalation of DNA” value is listed as “without stabilizing the cleaved complex, or causing significant DNA strand breaks or intercalation of DNA”.

As a reminder, the Ki is the dissociation constant of the complex between target and ligand, obtained from inhibition or displacement. In general, IC50 refers to the concentration that inhibits the measured activity by half.

The values are drawn from patent US20140309257A1, “TOPOISOMERASE INHIBITORS AND METHODS OF MAKING AND USE AS THERAPEUTIC AGENTS” (THE REGENTS OF THE UNIVERSITY OF COLORADO, a body corporate, priority 2011, published 2014).
